Data published in US8962660B2 (Bristol-Myers Squibb Company, priority 2013, dated 2015).

Target: T1, human GPR120 (Homo sapiens, UniProt Q5NUL3)
T1 construct: expressed in transfected cells; host or cells: CHOA12 cells
T1 sequence (Q5NUL3 1-361): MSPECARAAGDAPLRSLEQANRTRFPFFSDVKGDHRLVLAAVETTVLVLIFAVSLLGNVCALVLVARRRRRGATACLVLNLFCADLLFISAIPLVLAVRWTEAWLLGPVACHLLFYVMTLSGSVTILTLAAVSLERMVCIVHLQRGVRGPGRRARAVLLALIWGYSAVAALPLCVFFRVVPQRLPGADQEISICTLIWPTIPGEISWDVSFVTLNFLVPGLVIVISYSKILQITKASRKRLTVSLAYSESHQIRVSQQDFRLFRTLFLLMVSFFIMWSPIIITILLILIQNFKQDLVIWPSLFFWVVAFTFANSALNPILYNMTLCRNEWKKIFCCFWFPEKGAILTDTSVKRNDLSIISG
Assay: GPR120 pERK AlphaScreen SureFire assay (human)
Type: cell-based
Details: CHO cells stably transfected with short form of human GPR120
Description: GPR120 activity was monitored by measuring phosphorylation of ERK (pERK), since G protein receptors are known to activate the ERK signaling cascade either directly and/or through recruitment of arrestin that serves as a scaffold for downstream signaling events.
GPR120 pERK AlphaScreen SureFire Assay
The human and mouse GPR120-mediated intracellular phosphorylated ERK assays were established using CHOA12 cells stably transfected with the short form of human or mouse GPR120 receptor. Cells were cultured in growth medium consisting of F-12 media (Invitrogen Cat. #11765) with 5% Charcoal/Dextran FBS (Invitrogen Cat. #12676-029), 500 μg/mL GENETICIN® (Life Technologies Cat. #10131-027) and 250 μg/mL Zeocin (Invitrogen Cat. #R250-01). Cells were cryo preserved at a concentration of 2×10^7 cells/mL, in 90% Charcoal/Dextran FBS and 10% DMSO, and frozen in liquid nitrogen at a low passage number.
For the pERK assay, 2×10^7 cells/mL cryopreserved human and mouse cells were thawed rapidly in a 37° C. water bath and added to a T-225 flask containing 50 mL growth medium. The flasks were placed in a tissue culture incubator overnight (37° C., 5% CO2). The next day, cells were harvested with trypsin (Gibco Cat. #25300-054), resuspended in serum-containing growth medium and counted using a Cellometer and volume adjusted to a concentration of 0.6×10^6cells/mL. Cells were plated into 384-well clear bottom tissue culture plates (BD Cat. #353962) at 50 μL/well, for a density of 30,000 cells/well using a MULTIDROP® and incubated for 16-18 hours (overnight) at 37° C. with 5% CO2. The next day, cells were serum starved in 30 μL of F-12 media without any serum or antibiotics for 2 hours at 37° C.
Test compounds were 3-fold, 11-point serially diluted in DMSO in a REMP assay plate (Matrix Cat. #4307) by Tecan and 5 μL was transferred into an ECHO source plate (LABCYTE® Cat. #LC-0200). Cells were then stimulated with 50 nL of compound dilutions using ECHO liquid handler for 7 minutes at 37° C. Compounds ranged from final assay concentrations of 33.33 μM to 0.56 nM.
The media was then dumped and cells lysed with 20 μL of 1× Lysis buffer from the AlphaScreen SureFire Phospho-ERK 1/2 Kit (Perkin Elmer Cat. #6760617M). The lysis buffer was diluted 5-fold with water before use. The plate was agitated on a shaker for 10 minutes after which 2 μL was transferred into a 384-well white proxiplate (Perkin Elmer Cat. #6008289). The SureFire assay reagent mix was prepared by mixing 60 parts Reaction Buffer, 10 parts Activation Buffer, 1 part Donor Beads, 1 part Acceptor Beads (Perkin Elmer Cat. #TGRES10K). 3.5 μL/well of this reagent mix was manually added to the proxiplate with a multichannel pipettor. Plates were spun down at 1000 rpm for 2 minutes, followed by light-protected incubation at room temperature for 2 hours. The plates were read on the Alpha-technology compatible Envision multilabel plate reader using AlphaScreen protocol according to manufacturer's specifications. The agonist effect of compounds was expressed as 100×(average sample−average blank)/(average total−average blank) where sample is the luminescence activity in the presence of test compound, blank is equal to the luminescence activity in the presence of DMSO control and the total is signal induced by 50 μM linolenic acid as reference compound. Activation data for the test compound over a range of concentrations was plotted as percentage activation of the test compound (100%=maximum response). After correcting for background, EC50 values were determined The EC50 is defined as the concentration of test compound which produces 50% of the maximal response and was quantified using the 4 parameter logistic equation to fit the data.
The human and mouse GPR120-mediated intracellular phosphorylated ERK assays were also established using CHO-K1 cells stably transfected with the short form of human or mouse GPR120 receptor. […]

SMILES | EC50 [nM]
O=C(O)C1CC1CCC12CCC(c3cccc(Oc4ccccc4)c3)(CC1)OC2 (racemic) [Example 13, trans-2-(2-(1-(3-Phenoxyphenyl)-2-oxabicyclo[2.2.2]octan-4-yl)ethyl)cyclopropanecarboxylic acid] | 350
O=C(O)[C@@H]1C[C@@H]1CCC12CCC(c3cccc(Oc4ccccc4)c3)(CC1)OC2 (racemic) [Example 32, Cis-2-(2-(1-(3-phenoxyphenyl)-2-oxabicyclo[2.2.2]octan-4-yl)ethyl)cyclopropanecarboxylic acid] | 580
CCCC(C)Oc1cccc(C23CCC(CCOCC(=O)O)(CC2)CO3)c1 (racemic) [Example 53, 2-(2-(1-(3-(Pentan-2-yloxy)phenyl)-2-oxabicyclo[2.2.2]octan-4-yl)ethoxy)acetic acid] | 1030
OCC(O)CCCC12CCC(c3cccc(Oc4ccccc4)c3)(CC1)OC2 (racemic) [Example 58, 5-(1-(3-Phenoxyphenyl)-2-oxabicyclo[2.2.2]octan-4-yl)pentane-1,2-diol] | 290
O=C(O)[C@@H]1C[C@H]1CCC12CCC(c3cccc(Oc4ccccc4)c3)(CC1)OC2 (single isomer, unassigned) [Example 15] | 480
O=C(O)C[C@H]1C[C@@H]1CC12CCC(c3cccc(Oc4ccccc4)c3)(CC1)OC2 (single isomer, unassigned) [Example 17] | 260
O=C(O)C[C@@H]1C[C@H]1CC12CCC(c3cccc(Oc4ccccc4)c3)(CC1)OC2 (single isomer, unassigned) [Example 18] | 410
OCC(O)CCCC12CCC(c3cccc(Oc4ccccc4)c3)(CC1)OC2 (single isomer, unassigned) [Example 59, S-5-(1-(3-Phenoxyphenyl)-2-oxabicyclo[2.2.2]octan-4-yl)pentane-1,2-diol] | 360
OC[C@H](O)CCCC12CCC(c3cccc(Oc4ccccc4)c3)(CC1)OC2 (single isomer, unassigned) [Example 60, R-5-(1-(3-phenoxyphenyl)-2-oxabicyclo[2.2.2]octan-4-yl)pentane-1,2-diol] | 570
O=C(NCc1ncn[nH]1)[C@@H]1C[C@H]1CCC12CCC(c3cccc(Oc4ccccc4)c3)(CC1)OC2 (single isomer, unassigned) [Example 62, N-((1H-1,2,4-Triazol-5-yl)methyl)-2-(2-(1-(3-phenoxyphenyl)-2-oxabicyclo[2.2.2]octan-4-yl)ethyl) cyclopropanecarboxamide] | 1220
O=C(O)C1CC1CCC12CCC(c3cc(F)cc(Oc4ccccc4)c3)(CC1)OC2 (single isomer, unassigned) [Example 63, 2-(2-(1-(3-Fluoro-5-phenoxyphenyl)-2-oxabicyclo[2.2.2]octan-4-yl)ethyl)cyclopropanecarboxylic acid] | 370
O=C(O)[C@@H]1C[C@H]1CCC12CCC(c3cc(F)cc(Oc4cccc(F)c4)c3)(CC1)OC2 (single isomer, unassigned) [Example 64, 2-(2-(1-(3-Fluoro-5-(3-fluorophenoxy)phenyl)-2-oxabicyclo[2.2.2]octan-4-yl)ethyl) cyclopropanecarboxylic acid] | 260
O=C(O)[C@@H]1C[C@H]1CCC12CCC(c3cccc(Oc4cccc(F)c4)c3)(CC1)OC2 (single isomer, unassigned) [Example 65, 2-(2-(1-(3-(3-Fluorophenoxy)phenyl)-2-oxabicyclo[2.2.2]octan-4 yl)ethyl)cyclopropane carboxylic acid] | 330
CC(C)COc1cccc(C23CCC(CC[C@@H]4C[C@H]4C(=O)O)(CC2)CO3)c1 (single isomer, unassigned) [Example 66, 2-(2-(1-(3-Isobutoxyphenyl)-2-oxabicyclo[2.2.2]octan-4-yl)ethyl)cyclopropanecarboxylic acid] | 2080
COc1cccc(Oc2cccc(C34CCC(CC[C@@H]5C[C@H]5C(=O)O)(CC3)CO4)c2)c1 (single isomer, unassigned) [Example 67, 2-(2-(1-(3-(3-Methoxyphenoxy)phenyl)-2-oxabicyclo[2.2.2]octan-4-yl)ethyl)cyclopropanecarboxylic acid] | 750
O=C(NCc1ncn[nH]1)[C@H]1C[C@@H]1CCC12CCC(c3cccc(Oc4ccccc4)c3)(CC1)OC2 (single isomer, unassigned) [Example 68, N-((1H-1,2,4-Triazol-5-yl)methyl)-2-(2-(1-(3-phenoxyphenyl)-2-oxabicyclo[2.2.2]octan-4-yl)ethyl)cyclopropanecarboxamide] | 720
CCNC(=O)[C@@H]1C[C@H]1CCC12CCC(c3cccc(Oc4ccccc4)c3)(CC1)OC2 (single isomer, unassigned) [Example 69, N-Ethyl-2-(2-(1-(3-phenoxyphenyl)-2-oxabicyclo[2.2.2]octan-4-yl)ethyl) cyclopropanecarboxamide] | 4230
O=C(O)[C@@H]1C[C@H]1CCC12CCC(c3cccc(Oc4cccc(O)c4)c3)(CC1)OC2 (single isomer, unassigned) [Example 70, 2-(2-(1-(3-(3-Hydroxyphenoxy)phenyl)-2-oxabicyclo[2.2.2]octan-4-yl)ethyl) cyclopropanecarboxylic acid] | 970
O=C(O)[C@@H]1C[C@H]1COCC12CCC(c3cccc(Oc4ccccc4)c3)(CC1)OC2 (single isomer, unassigned) [Example 98] | 1020
O=C(O)[C@H]1C[C@@H]1COCC12CCC(c3cccc(Oc4ccccc4)c3)(CC1)OC2 (single isomer, unassigned) [Example 99] | 340
O=C(O)CCC12CCC(c3cccc(Oc4ccccc4)c3)(CC1)OC2 [Example 1, 3-(1-(3-Phenoxyphenyl)-2-oxabicyclo[2.2.2]octan-4-yl)propanoic acid] | 2310
O=C(O)CCCCC12CCC(c3cccc(Oc4ccccc4)c3)(CC1)OC2 [Example 2] | 60
COc1cccc(C23CCC(CCCCC(=O)O)(CC2)CO3)c1 [Example 3, 5-(1-(3-Methoxyphenyl)-2-oxabicyclo[2.2.2]octan-4-yl)pentanoic acid] | 200
Cc1nc(-c2ccccc2)c(C23CCC(CCCCC(=O)O)(CC2)CO3)s1 [Example 4, 5-(1-(2-Methyl-4-phenylthiazol-5-yl)-2-oxabicyclo[2.2.2]octan-4-yl)pentanoic acid] | 1600
O=C(O)CCOCC12CCC(c3cccc(Oc4ccccc4)c3)(CC1)OC2 [Example 5, 3-((1-(3-Phenoxyphenyl)-2-oxabicyclo[2.2.2]octan-4-yl)methoxy)propanoic acid] | 80
CC(C)Oc1cccc(C23CCC(CCOCC(=O)O)(CC2)CO3)c1 [Example 7, 2-(2-(1-(3-Isopropoxyphenyl)-2-oxabicyclo[2.2.2]octan-4-yl)ethoxy)acetic acid] | 7540
O=C(O)COCCC12CCC(c3cccc(OC4CCCCC4)c3)(CC1)OC2 [Example 8, 2-(2-(1-(3-(Cyclohexyloxy)phenyl)-2-oxabicyclo[2.2.2]octan-4-yl)ethoxy)acetic acid] | 1050
